The test system of one experiment is lipoprotein (LPP). The experiment can be described thus: LPP binding by ITC analysis. As to conditions: cell wall component of gram-positive bacteria (S. aureus). The text has this: The binding affinity to lipoteichoic acid (LTA) and lipoprotein (LPP), which are cell wall components of gram-positive bacteria (S. aureus), was confirmed through ITC analysis using allD FP13-NH2.
The binding affinity was confirmed using the ITC analysis method, and the experimental method in Example 1 was applied mutatis mutandis.
(Isothermal titration calorimetry measures the heat released or taken up as one component is titrated into another.)

For experiment [1], the system named is Carbapenem resistant (CR)-Acinetobactor baumannii. The experiment in a line: organism not typed.
For experiment [2], the system named is Klebiella pneumoniae (ATCC 13883). The experiment can be described thus: microbe, parasite or virus in culture. As to conditions: ATCC 13883. The method, then: (§1) To compare the antibacterial activity between the four commercially available antibiotics (ampicillin, gentamicin, levofloxacin and imipenem) and the allD FP13-NH2 (AcOH) peptide, an antibacterial activity test was performed to measure the minimum inhibitory concentrations (MIC50 and MIC80) for gram-negative and gram-positive standard strains (Escherichia coli DH5α, Escherichia coli K1, Acinetobacter baumannii, Pseudomonas aeruginosa, Salmonella enteritidis, Salmonella typhimurium, and Klebsiella pneumoniae).
(§2) More specifically, 100 μL of a medium was dispensed into each well of a 96-well plate, and in the first column, an antibiotic and a peptide in 200 μL of the medium were dispensed. 1/2 serial dilution was performed from columns 1 to 11, and gram-negative and gram-positive bacteria which had been previously cultured were diluted (OD600 nm value in dilution: approximately 0.0025) and dispensed into each well. The plate was incubated in a 37° C. incubator for 4 hours, and measured at OD600 nm.

Experiment [3] has as its system Pseudomanas aeruginosa PAO1 (ATCC 47085D-5). The experiment in a line: microbe, parasite or virus in culture. As to conditions: PAO1. The method, then: as §1, §2
For experiment [4], the system named is Acinetobacter baumannii (ATCC 19606). The experiment can be described thus: microbe, parasite or virus in culture. As to conditions: ATCC 19606. The method, then:
as §1, §2

The next experiment has as its system Escherichia coli K1. The experiment can be described thus: microbe, parasite or virus in culture. As to conditions: K1. The method, then:
as §1, §2

Experiment [5] has as its system Salmonela enteritidis (ATCC 13076). The experiment can be described thus: microbe, parasite or virus in culture. As to conditions: ATCC 13076. The method, then: as §1, §2
In experiment [6] the test system is Escherichia coli DH5α (ATCC PTA-4750). The experiment can be described thus: microbe, parasite or virus in culture. As to conditions: Escherichia coli DH5α, 4 hours. The method, then: as §1, §2
The test system of experiment [7] is Salmonela typhimurium (ATCC 53648). The experiment in a line: microbe, parasite or virus in culture. As to conditions: Salmonella typhimurium ATCC 53648. The method, then: as §1, §2
The nature of experiment [8]: Calcein dye leakage from liposome mimicking gram-negative bacterial cell membrane. It counts as biochemical. As to conditions: calcein-encapsulated liposome. The method, then:
To study an action mechanism for FP12-NH2, FP13-NH2, allD FP12-NH2, and allD FP13-NH2 peptides, the disruption ability of the peptides against liposomes mimicking a bacterial cell membrane and a red blood cell membrane was measured.
EYPG is an abbreviation for egg yolk L-α-phosphatidyl-DL-glycerol, and EYPC is an abbreviation for egg yolk 1,2-diacyl-sn-glycero-3-phosphocholine. CH is an abbreviation for cholesterol. After dissolving the phospholipids composed according to the content of each component in chloroform, the chloroform was removed using a rotary evaporator, and lyophilization was performed overnight. Afterward, the dried lipid film was dissolved in a Tris-buffer solution, and calcein […]. After repeated freezing and thawing, the calcein-encapsulated liposome was manufactured using an extruder. Subsequently, after an excitation wavelength of a spectrofluorimeter (Shimadzu RF 5301 PC spectrofluorimeter, Japan) was set to 490 nm, and an emission wavelength was set to 520 nm, the peptide was administered to the liposome to measure relative dye leakage, provided that a 100% dye leakage was expressed as fluorescence intensity when 0.010% Triton-X100 was added.
The upper graphs of FIG. 3 show the % dye leakage for an EYPC/EYPG (7:3, w/w) liposome mimicking bacterial cells, encapsulating a fluorescent dye, calcein, by a peptide according to a peptide concentration. […] The lower graphs of FIG. 3 show the % dye leakage for an EYPC/CH (10:1, w/w) liposome, which is […] mimicking a human red blood, encapsulating a fluorescent dye, calcein, by a peptide according to a peptide concentration.

Square brackets hold non-standard residues; d marks the D form. Peptide text beside a SMILES is read from it.

For the compound `CC(C)C[C@@H](NC(=O)[C@H](N)CCCCN)C(=O)N[C@H](CCCNC(=N)N)C(=O)N[C@@H](C(=O)N[C@H](CCCCN)C(=O)N[C@H](CC(C)C)C(=O)N[C@H](CCCNC(=N)N)C(=O)N[C@H](CCCNC(=N)N)C(=O)N[C@H](Cc1ccc(O)cc1)C(=O)N[C@H](CC(C)C)C(=O)N[C@H](CCCNC(=N)N)C(N)=O)C(C)C` [allD FP13-NH2] (H-[dK][dL][dR][dV][dK][dL][dR][dR][dY][dL][dR]-NH2; N-terminus assumed), in the experiment on lipoprotein (LPP), the “binding to LPP (ITC)” value is reported as “binds”. Moreover, the “MIC50, Carbapenem resistant (CR)-Acinetobactor baumannii” value in experiment [1] was less than 4 µg/mL. The “MIC (μg/ml) 50%” value in experiment [2] was less than 0.5 µg/mL; in experiment [3], less than 0.5 µg/mL; in experiment [4], less than 4.0 µg/mL; against Escherichia coli K1, less than 2.0 µg/mL; in experiment [5], less than 1.0 µg/mL; in experiment [6] (50% growth inhibition), less than 1.0 µg/mL. Besides, the “MIC (μg/ml) 50%” value in experiment [7] (50% growth inhibition) was less than 2.0 µg/mL. The “MIC (μg/ml) 80%” value in experiment [2] was less than 1.0 µg/mL; in [3], less than 1.0 µg/mL; in [4] it was less than 8.0 µg/mL; with Escherichia coli K1, less than 4.0 µg/mL; in experiment [5], less than 2.0 µg/mL; in experiment [6] (80% growth inhibition), less than 2.0 µg/mL. The “MIC (μg/ml) 80%” value in experiment [7] (80% growth inhibition) was less than 4.0 µg/mL. Besides, the “dye leakage, PC/PG (7:3, w/w) liposome mimicking a bacteria cell membrane” value in [8] was “high dye leakage”.

The record behind these values is patent publication US12371453B2, “Polypeptide having antibacterial activity, composition for preventing or treating sepsis comprising same, and antibacterial composition” (priority 2019, dated 2025).
